Laboratory results as given in patent US9243281B2, “Neuroprotective chemicals and methods for identifying and using same” (Board of Regents of The University of Texas System, priority 2013, dated 2016).

Columns and labels:
[1] = tested on: NAD levels in doxorubicin-treated U2OS cells; assay: NAD rebound assay in doxorubicin-treated cells (NAD/NADH Glo); format: cell-based; settings: 0.5 μM doxorubicin 45 h
Procedure: FIG. 12. Five-point dose response curves (DRC) of all tested compounds in NAD rebound assay. […] Cellular NAD abundance was determined by NAD/NADH Glo assay kit.
Each chemical variant of P7C3 was co-incubated with doxorubicin on cultured U2OS cells at five doses (0.03 uM, 0.1 uM, 0.3 uM, 1 uM and 3 uM). After 45 hrs incubation, cells were assayed for intracellular levels of NAD (FIG. 12).
Assay was performed following the manufacturer's protocol. NAD/NADH-Glo reagent contains the NAD Cycling Enzyme that converts NAD+ to NADH. In the presence of NADH, the enzyme reductase reduces a proluciferin reductase substrate to form luciferin. Cells were grown in 96- or 384-well plates. 50 μl or 15 μl of NAD/NADH-Glo™ Detection Reagent were added to each well. The resulting luminescence signals were measured by Tecan plate reader or EnVison multimode plate reader (Perkin Elmer).

p70 (NAMPT) = target: T1, p70 (NAMPT) (Homo sapiens, UniProt P43490); assay: binding competition for photo-crosslinking of P7C3-S326 to p70 in H2122 cells; settings: 0.3 μM P7C3-S326 plus 5 μM competitor, p70 band intensity, P7C3-S326 alone compared with plus competitor, vehicle 1.0
T1 construct: endogenous in cells; host or cells: H2122 lung cancer cells
How it was run: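 Competition for photo-crosslinking: P7C3 analogs (5 uM) were added alongside the 0.3 μM P7C3-S326 probe to H2122 cells for 2 hours before 15 minutes of 306 nm UV irradiation. In-gel fluorescence of the p70 band after click labeling was normalized to DMSO.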

Human NAMPT = target: T2, Human NAMPT (Homo sapiens, UniProt P43490); assay: in vitro NAMPT coupled-enzyme assay (NADH at OD340 nm); format: biochemical; settings: for activation of recombinant NAMPT enzyme: coupled assay NAMPT, NMNAT, ADH; for NAMPT activation: relative reaction rate normalized by the control reaction run prior to compound addition, vehicle 0.98
T2 construct: made in house; host or cells: E. coli
Procedure: FIGS. 7A-7C. […] (FIG. 7A) P7C3-A20 was incubated at indicated concentrations in a reaction coupled with three enzymes; NAMPT, NMNAT, and ADH (Experimental Procedures). NAMPT activity was recorded for the indicated period of time at OD340 nm by measuring NADH appearance, leading to the indicated concentration-time plot. […] (FIG. 7B) Analysis of the activities of thirty P7C3 analogs was performed to assess their effects on NAMPT enzymatic activity. The reaction rate was calculated as the slope of the concentration-time curve. Relative reaction rate was normalized by the control reaction run prior to compound addition. Data represents the mean of experimental duplicates. Scatter graphs were plotted to compare the ability of compounds to activate NAMPT relative to their ability to compete away P7C3-S326 crosslinking (top scatter plot), ability to protect cells from doxorubicin-mediated toxicity (middle scatter plot), or ability to facilitate NAD restoration in doxorubicin-treated cells (bottom scatter plot). […] Data are expressed as mean±SD of duplicate independent assays.
The enzymatic activity of recombinant NAMPT was monitored in a coupled assay wherein nicotinamide conversion to NMN was followed by sequential production of NAD (via the NMNAT enzyme) and NADH (via alcohol dehydrogenase). To minimize variation, a control reaction was run in each assay prior to compound addition.
Briefly, NAMPT first converted nicotinamide to NMN, which was followed by sequential production of NAD via nicotinamide mononucleotide adenylyl-transferase (NMNAT). NAD was then reduced to NADH by alcohol dehydrogenase (Sigma) using alcohol as the substrate. The resulting NADH was monitored by OD340 nm. […] 10 mM stocks of P7C3 analogs in DMSO were further diluted in ethanol prior to applying to the reaction. To minimize variation, a control reaction was run in each assay prior to compound addition.

[2] = tested on: hippocampal neurogenesis (Dentate Gyrus); assay: in vivo neurogenesis assay (BrdU+ cells in dentate gyrus); parameters: species or system mice; settings: for Neurogenesis # BrdU+ Cells (X10E06)/mm3 Dentate Gyrus: living mice, vehicle (DMSO) 7.3
How it was run: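 New hippocampal cells were tracked by daily BrdU injections and anti-BrdU staining of brain sections. Adult mice (two per pool of ten compounds) got week-long intracerebroventricular infusion by mini-pump, dosed for mid-nanomolar exposure.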

[3] = tested on: neurons in living animals; settings: neurogenesis, MPTP model, concussive blast injury; cited from earlier work
U2OS cells = assay: doxorubicin toxicity (dox:tox) protection assay, Cell Titer Glo cell survival; format: cell-based; settings: cultured U2OS cells
From the text: FIGS. 2A-2D. […] (FIG. 2A) Chemical structure of P7C3-S326. […] (FIG. 2C) Formulas used for calculating doxorubicin toxicity (dox:tox) protection activity. Protection activity is expressed by (Sinf−S0)/AC50 in the twelve-point dose response curve (DRC) corresponding to each compound, wherein both efficacy and potency of compounds were considered. Sinf represents the expected maximal protection. S0 is the baseline. […] In the photo-crosslinking assays, the p70 band intensity was quantified by Image J, and compared the sample of P7C3-S326 alone with that of P7C3-S326 plus competitor. Pearson correlation coefficient (r) and two tailed P value were determined by GraphPad Prism 6 and Spearman Rank Correlation (v1.0.1) software.
FIG. 10. Twelve-point dose response curves (DRC) of all tested compounds in doxorubicin toxicity protection assay. […] Cell viability was determined by Cell Titer Glo assay kit.
Cell survival assay was performed in 96-well plates using CellTiter-Glo Luminescent Cell Viability Assay kit (Promega) that measures cellular ATP content. The CellTiter-Glo reagent was diluted by adding 2 volumes of PBS containing 1% Triton X-100. 50 μl of diluted reagent was directly added to 100 μl of cell culture medium per well. Plates were incubated at room temperature for 10 minutes. Luminescence was recorded by Tecan […]luor Plus reader (Tecan). Cell survival was presented as the percentage of viable cells compared with untreated control, and mean±SD was calculated from duplicates. The dox:tox assay of P7C3 analogs was carried out in the HTS Core (University of Texas Southwestern Medical Center) using the EnVison multimode plate reader (Perkin Elmer).

[4] = mice; IP, IV or oral routes; cited from earlier work
aged Fisher rats = settings: cited from earlier work
[5] = mice and rats, concentrations well above those required to stimulate hippocampal neurogenesis; cited from earlier work
[6] = tested on: hippocampal neurogenesis (Dentate Gyrus); settings: cited from earlier work

T1 sequence (P43490 whole entry): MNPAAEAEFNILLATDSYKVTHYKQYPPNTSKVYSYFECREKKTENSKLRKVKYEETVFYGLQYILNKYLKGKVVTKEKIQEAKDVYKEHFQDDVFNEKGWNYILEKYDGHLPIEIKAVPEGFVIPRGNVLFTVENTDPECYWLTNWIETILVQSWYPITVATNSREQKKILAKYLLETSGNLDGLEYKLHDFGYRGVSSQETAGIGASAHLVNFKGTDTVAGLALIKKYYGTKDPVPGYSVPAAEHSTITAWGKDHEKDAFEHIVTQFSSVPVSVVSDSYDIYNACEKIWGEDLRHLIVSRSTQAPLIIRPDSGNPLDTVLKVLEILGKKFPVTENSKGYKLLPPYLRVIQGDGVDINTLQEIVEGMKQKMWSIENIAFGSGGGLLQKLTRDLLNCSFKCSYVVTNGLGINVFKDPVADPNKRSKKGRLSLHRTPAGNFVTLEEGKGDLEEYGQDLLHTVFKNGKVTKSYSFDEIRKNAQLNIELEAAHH
T2 sequence (P43490 whole entry): as above

SMILES | Binding competition (p70 (NAMPT)) | NAMPT activation (Human NAMPT) | Neurogenesis # BrdU+ Cells (X10E06)/mm3 Dentate Gyrus [2] | further results
COc1cccc(NCC(F)Cn2c3ccc(Br)cc3c3cc(Br)ccc32)n1 (racemic) [S243, N-(3-(3,6-dibromo-9H-carbazol-9-yl)-2-fluoropropyl)-6-methoxypyridin-2-amine] | 2.2 | 1.26 |  | rebound of NAD levels (NAD/NADH-Glo kit) [1]: NAD rebound; activation of recombinant NAMPT enzyme (Human NAMPT): more active than the (+)P7C3-S243 enantiomer
COc1cccc(NC[C@@H](F)Cn2c3ccc(Br)cc3c3cc(Br)ccc32)n1 [(+)-S243] | 4.2 | 1.13 | 10.0 (X10E06)/mm3 | activity in the three in vivo assays of neuroprotection [3]: far less active; protection from doxorubicin-mediated toxicity (dox:tox assay) (U2OS cells): considerably less active
COc1cccc(NC[C@H](F)Cn2c3ccc(Br)cc3c3cc(Br)ccc32)n1 [(−)-S243, (S)—N-(3-(3,6-Dibromo-9H-carbazol-9-yl)-2-fluoropropyl)-6-methoxypyridin-2-amine] | 4.8 | 1.33 | 18.1 (X10E06)/mm3 | activity in the three in vivo assays of neuroprotection [3]: active; activation of recombinant NAMPT enzyme (Human NAMPT): more active in stimulating NAMPT than the racemix mix; protection from doxorubicin-mediated toxicity (dox:tox assay) (U2OS cells): protective
OC(CNc1ccccc1)Cn1c2ccc(Br)cc2c2cc(Br)ccc21 (centres unmarked) [P7C3] | 2.6 |  | 15.0 (X10E06)/mm3 | half-life, volume of distribution and brain penetration [4]: favorable; body weight relative to vehicle-treated controls (aged Fisher rats): maintained body weight; cognitive decline (aged Fisher rats): abrogation of cognitive decline; toxicity on prolonged administration [5]: not overtly toxic to rodents; enhancement in BrdU-positive hippocampal neurons ([6]; BrdU pulsed one day, then P7C3 for a month): 500%; enhanced level of BrdU-positive neurons ([6]; week-long dose of P7C3): two-fold
Nc1ccc[n+](CC(O)Cn2c3ccc(Br)cc3c3cc(Br)ccc32)c1 (centres unmarked) [S6] | 1.4 |  | 8.4 (X10E06)/mm3 | rebound of NAD levels (NAD/NADH-Glo kit) [1]: no rebound at all
O=S(=O)(CC(F)Cn1c2ccc(Br)cc2c2cc(Br)ccc21)c1ccc(O)cc1 (centres unmarked) [S103] | 1.9 | 0.97 | 7.0 (X10E06)/mm3 | 
C#CCN(C)[C@H](C)Cc1ccccc1 [S117, Selegiline, reference compound] | 1.0 |  | 8.1 (X10E06)/mm3 | rebound of NAD levels (NAD/NADH-Glo kit) [1]: no rebound at all
[N-]=[N+]=NCC(F)Cn1c2ccc(Br)cc2c2cc(Br)ccc21 (centres unmarked) [S189] | 3.6 | 1.06 | 6.9 (X10E06)/mm3 | 
CN1C(=O)CN=C(c2ccc(Cl)cc2)c2cc(Cl)ccc21 [S203] | 3.9 | 1.00 | 10.8 (X10E06)/mm3 | 
CC(C)(C)OC(=O)NCC(F)Cn1c2ccc(Br)cc2c2cc(Br)ccc21 (centres unmarked) [S208] | 1.2 | 1.16 | 13.5 (X10E06)/mm3 | 
c1ccc2c(c1)CCc1ccccc1N2 [S212] | 1.0 | 1.04 | 10.3 (X10E06)/mm3 | 
NC(=O)Cn1c2ccc(Br)cc2c2cc(Br)ccc21 [S213] | 1.1 | 1.00 | 6.5 (X10E06)/mm3 | 
Cl.NCC(F)Cn1c2ccc(Br)cc2c2cc(Br)ccc21 (centres unmarked) [S217] | 2.6 | 0.89 | 12.3 (X10E06)/mm3 | 
N#Cc1[nH]c2ccc(Br)cc2c1N [S222] | 1.3 | 1.02 | 15.1 (X10E06)/mm3 | 
Cc1cc2c(cn1)[nH]c1ccc(Br)cc12 [S226] | 1.9 | 0.96 | 12.8 (X10E06)/mm3 | 
O=C(Cn1c2ccc(Br)cc2c2cc(Br)ccc21)NS(=O)(=O)c1ccccc1 [S230] | 1.0 | 1.02 | 15.3 (X10E06)/mm3 | 
CS(=O)(=O)NC(=O)Cn1c2ccc(Br)cc2c2cc(Br)ccc21 [S232] | 0.9 | 1.00 | 8.4 (X10E06)/mm3 | 
Brc1ccc2c(c1)c1cc(Br)ccc1n2Cc1nnn[nH]1 [S233] | 0.9 | 0.88 | 7.3 (X10E06)/mm3 | 
COC(=O)NC(=O)Cn1c2ccc(Br)cc2c2cc(Br)ccc21 [S234] | 1.0 | 0.93 | 17.8 (X10E06)/mm3 | 
N#CCn1c2ccc(Br)cc2c2cc(Br)ccc21 [S235] | 1.8 | 0.97 | 11.7 (X10E06)/mm3 | 
C#CCOc1ccc(C(=O)c2ccc(C(=O)NCC(F)Cn3c4ccc(Br)cc4c4cc(Br)ccc43)cc2)cc1 (centres unmarked) [S326, N-(3-(3,6-dibromo-9H-carbazol-9-yl)-2-fluoropropyl)-4-(4-(prop-2-yn-1-yloxy)benzoyl)benzamide] |  | 1.10 |  | activity in the in vivo neurogenesis assay ([2]; mouse, in vivo): active; protection from doxorubicin-mediated toxicity (dox:tox assay) (U2OS cells): active
